Patent US4535083A, “Cleavage products of 4',6'-didesoxy-4'-thio-,6'-amino-hepturonic acid nucleosides” (Bayer Aktiengesellschaft, priority 1982, dated 1985)
≈ marks a conversion by molar mass, not a printed value.

Assays:
Test in all cases: in vitro agar dilution test (NCCLS), MIC
Type in all cases: cell-based
Staph. epid. 25185 = conditions: inoculation density 10^4 per inoculation point
Description: (§1) In the in vitro agar dilution test according to the internationally customary test (American National Committee for Clinical Laboratory Standards=NCCLS), activity is found against the germs listed below.
(§2) The minimum inhibitory concentration (MIC) was determined by the agar dilution procedure, using an inoculator and an inoculation density of 10^4 per inoculation point. The MIC is the concentration at which no bacteria colonies grow.

Klebs. 57 USA = conditions: inoculation density 10^4 per inoculation point
Description: as §1, §2

E. coli Neumann = conditions: Escherichia coli, inoculation density 10^4 per inoculation point
Description: as §1, §2

Serratia 16001 = conditions: inoculation density 10^4 per inoculation point
Description: as §1, §2

MIC (Staph. epid. 25185) [µg/mL] | MIC (Klebs. 57 USA) [µg/mL] | MIC (E. coli Neumann) [µg/mL] | MIC (Serratia 16001) [µg/mL] | SMILES
64 (≈ 134 µM) | 4 (≈ 8.4 µM) | 32 (≈ 67.2 µM) |  | Cn1c(=NC(N)=O)ccn(C2SC(C(O)C(NC(=O)C(N)CO)C(=O)O)C(O)C2O)c1=O (stereo not shown) [1 X = NCONH2]
 |  |  | 128 (≈ 295 µM) | Cn1c(=O)ccn(C2SC(C(O)C(NC(=O)C(N)CO)C(=O)O)C(O)C2O)c1=O (stereo not shown) [1 X = O]
